Measured values: patent US7678795B2, “Pyridazines as 11b-HSD1 inhibitors” (Hoffman-La Roche Inc., priority 2005, dated 2010)

Target: T1, human 11beta-HSD1 (Homo sapiens, UniProt P28845)
T1 construct: made in house; host or cells: HEK293 cells (ATCC CRL-1573), transient transfection; microsomal fraction
Assay: Microsome assay (cortisone to cortisol conversion, ELISA-based cortisol detection)
Format: biochemical
Conditions: microsomes from HEK293 cells transiently expressing human 11beta-HSD1; Cortisone 50-200 nM, NADPH 1 mM; 60 min at 37° C.; read-out: 11-beta-HSD 1 IC50
Protocol: Transient Expression and Partial Purification:
The cDNA encoding the human 11beta-HSD1 protein was cloned into the expression vector pcDNA3 ([…]). This construct (for details see Alex Odermatt et al.; J Biol. Chem.,1999, Vol. 274, Issue 40, 28762-28770) was used to transiently express the protein in HEK293 cells (ATCC number: CRL-1573, described in Graham, F. L., Smiley, J., Russell, W. C., Nairn, R.; (1977)) using lipofectamine. 48 h after transfection cells were washed twice with ice-cold PBS (Phosphate buffered Saline). To 1 volume of cell suspension in PBS 2 volumes of ice-cold lysis buffer (50 mM Tris; pH7.5; 1 mM EDTA; 100 mM NaCl) were added. The cells were lysed by Potter-homogenization (20 strokes). The resulting homogenate was sonicated wit a tip sonicator (10% output; 2×30 sec.) and cleared by a low speed centrifugation (10 min×9000 g; 4° C.). […]
Microsomes isolated from HEK293 cells transiently expressing human 11beta-HSD1 (for details see above) were incubated in assay buffer (100 mM NaCl; 1 mM EDTA; 1 mM EGTA; 1 mM MgCl; 250 mM Sucrose; 20 mM Tris pH 7.4; Cortisone 50-200 nM and NADPH 1 mM) together with different concentrations of test substances. […] The amount of Cortisol produced in this assay was determined using a commercially available, ELISA-based Cortisol-detection kit (Distributed by Assay Design, Inc.). […]

T1 sequence (P28845 whole entry): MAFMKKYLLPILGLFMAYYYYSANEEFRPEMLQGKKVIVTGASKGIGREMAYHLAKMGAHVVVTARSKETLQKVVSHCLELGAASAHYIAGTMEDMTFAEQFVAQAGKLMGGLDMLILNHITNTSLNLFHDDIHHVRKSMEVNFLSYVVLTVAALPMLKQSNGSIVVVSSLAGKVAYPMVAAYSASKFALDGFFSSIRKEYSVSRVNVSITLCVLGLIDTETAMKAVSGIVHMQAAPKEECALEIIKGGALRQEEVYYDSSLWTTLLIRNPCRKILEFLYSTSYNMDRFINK

| IC50 [nM] | Structure (SMILES) |
| --- | --- |
| 30 | Cc1c(-c2cc3c(nn2)[C@@]2(C)CC[C@@H]3C2(C)C)cnn1-c1ccccc1 [Example 1, (1S,8R)-1,11,11-Trimethyl-5-(5-methyl-1-phenyl-1H-pyrazol-4-yl)-3,4-diaza-tricyclo[6.2.1.0^2,7]undeca-2(7),3,5-triene] |
| 3 | FC(F)(F)c1ccccc1-c1cc2c(nn1)CCCCCC2 [Example 41, 3-(2-Trifluoromethyl-phenyl)-5,6,7,8,9,10-hexahydro-cycloocta[c]pyridazine] |
